Results taken from patent publication US10676508B2, “DEPDC1-derived peptide and vaccine containing same” (OncoTherapy Science, Inc., priority 2015, dated 2020).

Experiments:
[1] = tested on: peptide-pulsed C1R-A11; test: In vitro CTL induction, IFN-gamma ELISPOT assay (HLA-A*1101); type: cell-based, human; conditions: CTLs from HLA-A*1101-positive donors, DCs pulsed with 20 micro-g/ml peptide, day 21, versus unpulsed C1R-A11
Source text: Monocyte-derived dendritic cells (DCs) were used as the antigen-presenting cell to induce a cytotoxic T lymphocyte (CTL) response against peptides presented on human leukocyte antigens (HLAs). As described in the other sections, DCs were generated in vitro (Nakahara S et al., Cancer Res 2003, 63(14): 4112-8). Specifically, peripheral-blood mononuclear cells isolated from healthy volunteers (HLA-A*1101-positive) with the Ficoll-Paque plus solution (Pharmacia) were separated by attaching to plastic tissue culture dishes (Becton Dickinson) and concentrated as a monocyte fraction. The monocyte-concentrated population was cultured in the presence of 1000 IU/ml granulocyte macrophage colony-stimulating factor (R&D System) and 1000 IU/ml interleukin (IL)-4 (R&D System) in an AIM-V medium (Invitrogen) containing 2% heat-inactivated autologous serum (AS). After seven days of culturing, the cytokine-induced DCs were pulsed with 20 micro-g/ml each of the synthesized peptides in an AIM-V medium at 37 degrees C. for three hours in the presence of 3 micro-g/ml beta 2-microglobulin.
Next, these peptide-pulsed DCs were inactivated by X-ray irradiation (20 Gy), and mixed in a 1:20 ratio with autologous CD8^+ T cells obtained by positive selection using the CD8 Positive Isolation Kit (Dynal). These culture products were seeded in a 48-well plate (Corning). […]

[2] = tested on: peptide-pulsed C1R-A11; test: IFN-gamma ELISA of CTL line and CTL clones (HLA-A*1101); type: cell-based, human
Experimental: (§1) CTLs were propagated in culture using methods similar to those disclosed by Riddell et al. (Walter E A et al., N Engl J Med 1995, 333(16): 1038-44; Riddell S R et al., Nat Med 1996, 2(2): 216-23). The CTLs were co-cultured in a total of 25 ml AIM-V medium containing 5% AS (AIM-V/5% AS) and 40 ng/ml anti-CD3 antibody with two types of Mitomycin C-treated human B lymphoblastoid cell lines (5×10^6 cells). One day after beginning of the culturing, 120 IU/ml IL-2 was added to the culture. On days 5, 8 and 11, a fresh AIM-V/5% AS medium containing 30 IU/ml IL-2 was added to the culture (Tanaka H et al., Br J Cancer 2001, 84(1): 94-9; Umano Y et al., Br J Cancer 2001, 84(8): 1052-7; Uchida N et al., Clin Cancer Res 2004, 10(24): 8577-86; Suda T et al., Cancer Sci 2006, 97(5): 411-9; Watanabe T et al., Cancer Sci 2005, 96(8): 498-506).
CTLs were seeded to make 1 or 10 cells/well in 96 round-bottomed microtiter plates (Nalge Nunc International). The CTLs were co-cultured with two types of Mitomycin C-treated human B lymphoblastoid cell lines at 1×10^4 cells in a total of 150 micro-l/well AIM-V/5% AS medium with 30 ng/ml anti-CD3 antibody and 125 IU/ml IL-2. Ten days later, IL-2 at 500 IU/ml in 50 micro-1 AIM-V/5% AS medium was added to the medium. […]

[3] = tested on: COS7 cells transfected with DEPDC1 and HLA-A*1101; test: Specific CTL activity against target cells expressing DEPDC1 and HLA-A*1101; type: cell-based, African green monkey; conditions: peptide-induced CTL line
Source text: A cDNA encoding the open-reading frame of a target gene or HLA-A*1101 was amplified by PCR. The PCR-amplified product was cloned into an expression vector. Either or both of the target gene-expressing vector and the HLA-A*1101-expressing vector were transfected into COS7 cells, which is a cell line negative for the target gene and HLA, using Lipofectamine 2000 (Invitrogen) following the manufacturer's recommended protocol. Two days after transfection, the transfected cells were harvested using versene (Invitrogen), and used as the target cell for CTL activity assay (5×10^4 cells/well).
The CTL line induced with DEPDC1-A11-9-627 (SEQ ID NO: 1) was investigated for its ability to recognize target cells expressing DEPDC1 and the HLA-A*1101 molecule. COS7 cells transfected with both full-length DEPDC1 and the HLA-A*1101 gene were prepared as the target cell. COS7 cells transfected with either full-length DEPDC1 or HLA-A*1101 were prepared as the control.

[4] = tested on: peptide-pulsed C1R-A01 cells; test: In vitro CTL induction, IFN-gamma ELISPOT assay (HLA-A*0101); type: cell-based, human; conditions: CTLs from HLA-A*0101-positive donors, DCs pulsed with 20 micro-g/ml peptide, day 21, versus unpulsed C1R-A01
Source text: Monocyte-derived dendritic cells (DCs) were used as the antigen-presenting cell to induce a cytotoxic T lymphocyte (CTL) response against peptides presented on human leukocyte antigens (HLAs). As described in the other sections, DCs were generated in vitro (Nakahara S et al., Cancer Res 2003, 63(14): 4112-8). Specifically, peripheral-blood mononuclear cells isolated from healthy volunteers (HLA-A*0101-positive) with the Ficoll-Paque plus solution (Pharmacia) were separated by attaching to plastic tissue culture dishes (Becton Dickinson) and concentrated as a monocyte fraction. The monocyte-concentrated population was cultured in the presence of 1000 IU/ml granulocyte macrophage colony-stimulating factor (R&D System) and 1000 IU/ml interleukin (IL)-4 (R&D System) in an AIM-V medium (Invitrogen) containing 2% heat-inactivated autologous serum (AS). After seven days of culturing, the cytokine-induced DCs were pulsed with 20 micro-g/ml each of the synthesized peptides in an AIM-V medium at 37 degrees C. for three hours in the presence of 3 micro-g/ml beta 2-microglobulin. Next, these peptide-pulsed DCs were inactivated by X-ray irradiation (20 Gy), and mixed in a 1:20 ratio with autologous CD8^+ T cells obtained by positive selection using the CD8 Positive Isolation Kit (Dynal). These culture products were seeded in a 48-well plate (Corning). Each well was made to contain 1.5×10^4 peptide-pulsed DCs, 3×10^5 CD8^+ T cells and 10 ng/ml IL-7 (R&D System) in 0.5 ml of the AIM-V/2% AS medium. Three days later, these culture products were added with a final concentration of 20 IU/ml IL-2 (CHIRON). On day 7 and day 14, T cells were further stimulated with peptide-pulsed autologous DCs. The DCs were prepared every time by the same method as above. On day 21, after the third peptide stimulation, CTL activities were examined against the peptide-pulsed C1R-A01 cells (Tanaka H et al., Br J Cancer 2001, 84(1): 94-9; Umano Y et al., Br J Cancer 2001, 84(8): 1052-7; Uchida N et al., Clin Cancer Res 2004, 10(24): 8577-86; Suda T et al., Cancer Sci 2006, 97(5): 411-9; Watanabe T et al., Cancer Sci 2005, 96(8): 498-506).
To examine specific CTL activity, an IFN-gamma ELISPOT assay and an IFN-gamma ELISA were performed. Specifically, peptide-pulsed C1R-A01 cells (1×10^4 cells/well) were prepared as the stimulator cell. The induced CTLs, i.e., CTL lines and CTL clones, were used as the responder cell. The IFN-gamma ELISPOT assay and IFN-gamma ELISA were performed according to the manufacturer's manual.

[5] = tested on: peptide-pulsed C1R-A01 cells; test: IFN-gamma ELISA of CTL line and CTL clone (HLA-A*0101); type: cell-based, human
Experimental: as §1, with “AS” for “AS (AIM-V/5% AS)”, “at 5×10^6 cells.” for “(5×10^6 cells).”
CTLs were seeded to make 1 or 10 cells/well in 96 round-bottomed microtiter plates (Nalge Nunc International). The CTLs were co-cultured with two types of Mitomycin C-treated human B lymphoblastoid cell lines at 1×10^4 cells in a total of 150 micro-l/well 5% AS-containing AIM-V medium with 30 ng/ml anti-CD3 antibody and 125 IU/ml IL-2. Ten days later, 50 micro-1 of IL-2 at 500 IU/ml in 5% AS-containing AIM-V medium was added to the medium. […]

[6] = tested on: COS7 cells transfected with DEPDC1 and HLA-A*0101; test: Specific CTL activity against target cells expressing DEPDC1 and HLA-A*0101; type: cell-based, African green monkey; conditions: peptide-induced CTL clone
Source text: A cDNA encoding the open-reading frame of a target gene or HLA-A*0101 was amplified by PCR. The PCR-amplified product was cloned into an expression vector. Expression vectors were transfected using Lipofectamine 2000 (Invitrogen) following the manufacturer's recommended protocol. Two days after transfection, the transfected cells were harvested using versene (Invitrogen), and used as the stimulator cell for CTL activity assay (5×10^4 cells/well).
The CTL clone induced with DEPDC1-A01-11-44 (SEQ ID NO: 108) was investigated for its ability to recognize target cells expressing DEPDC1 and the HLA-A*0101 molecule. COS7 cells transfected with both full-length DEPDC1 and the HLA-A*0101 gene were prepared as the target cell. COS7 cells transfected with either full-length DEPDC1 or HLA-A*0101 were prepared as the control.

Sequence	peptide-specific CTL activity (IFN-gamma production, ELISPOT) [1]	IFN-gamma production of CTL clones (ELISA) ([2]; CTL clones by limiting dilution, peptide-pulsed C1R-A11 cells)	IFN-gamma production of the CTL line (ELISA) ([2]; CTL line from Well #4, peptide-pulsed versus unpulsed target cells)	CTL activity against control COS7 cells ([3]; COS7 transfected with either full-length DEPDC1 or HLA-A*1101)	CTL activity against COS7 cells expressing both DEPDC1 and HLA-A*1101 [3]	peptide-specific CTL activity (IFN-gamma production, ELISPOT) [4]	IFN-gamma production of CTL clone (ELISA) ([5]; CTL clone by limiting dilution, peptide-pulsed C1R-A01 cells)	IFN-gamma production of the CTL line (ELISA) ([5]; CTL line from Well #8, peptide-pulsed versus unpulsed target cells)	CTL activity against control COS7 cells ([6]; COS7 transfected with either full-length DEPDC1 or HLA-A*0101)	CTL activity against COS7 cells expressing both DEPDC1 and HLA-A*0101 [6]
MSQNVDMPK [SEQ ID NO: 1]	potent IFN-gamma production	Potent IFN-gamma production	potent IFN-gamma production	a significant specific CTL activity was not detected	potent CTL activity					
FTAGEAVDWLY (a peptide derived from DEPDC1) [SEQ ID NO: 108]						potent IFN-gamma production	Potent IFN-gamma production	potent IFN-gamma production	a significant specific CTL activity was not detected	potent CTL activities
